Values of other authors in US20230404964A1, “COMBINATION FOR REDUCING OXIDATIVE STRESS IN THE BODY AND MAINTAINING LIVER FUNCTIONS” (priority 2020, published 2023).
Values joined by “and” are separate entries in the source; they are usually repeats but may differ in a detail not shown here. Identical values can stand only once.

System: HUVEC cells
Settings: pretreatment with DHM 37.5-300 μmol, hydrogen peroxide

In the case of `O=C1c2c(O)cc(O)cc2O[C@H](c2cc(O)c(O)c(O)c2)[C@H]1O` [DHM, Dihydromyricetin], the decrease in apoptosis (depending on the dose) is given as 14.83% and 11.1% and 9.12%, the “MDA concentration (in words)” value is given as “decrease in the MDA concentration” and the “production of reactive oxygen species (in words)” value is given as “significant decrease in the production of reactive oxygen species”.
